Like-named read-outs stand apart in the source and are kept apart here.
What was measured:
[1] = system: Key Broadleaf Weed and Crop Species; experiment: Post-emergent Test II herbicidal activity (Table 5); assay type: in vivo; conditions: post-emergence, 336 h, post-emergent, 14 days after application; for pest or weed control at 70 g/ha: 70 g ai/ha; for pest or weed control at 140 g/ha: 140 g ai/ha
Procedure, shortened: (§1)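 Foliar application at 187 L/ha to greenhouse-grown seedlings (first or second true leaf); subirrigation thereafter. Visual 0–100% injury at 14 d relative to untreated plants.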

[2] = system: Key Grass and Sedge Weeds as well as Grass Crops; experiment: Post-emergent Test II herbicidal activity (Table 6); assay type: in vivo; conditions: post-emergence, 336 h; for pest or weed control at 70 g/ha: application rate 70 g ai/ha; for pest or weed control at 140 g/ha: application rate 140 g ai/ha
Procedure, shortened: as §1

[3] = ABUTH: velvetleaf (Abutilon theophrasti), read-out: Visual Growth Reduction (%) 14 Days After Application ABUTH
[4] = AMARE: redroot pigweed (Amaranthus retroflexus), read-out: Visual Growth Reduction (%) 14 Days After Application AMARE
[5] = BRSNN: oilseed-rape, canola (Brassica napus), read-out: Visual Growth Reduction (%) 14 Days After Application BRSNN
[6] = CHEAL: lambsquarters (Chenopodium album), read-out: Visual Growth Reduction (%) 14 Days After Application CHEAL
[7] = EPHHL: wild poinsettia (Euphorbia heterophylla), read-out: Visual Growth Reduction (%) 14 Days After Application EPHHL
[8] = HELAN: sunflower (Helianthus annuus), read-out: Visual Growth Reduction (%) 14 Days After Application HELAN
[9] = VIOTR: wild pansy (Viola tricolor), read-out: Visual Growth Reduction (%) 14 Days After Application VIOTR
[10] = Triticum aestivum, TRZSS (wheat), read-out: Visual Growth Reduction (%) 14 Days After Application, TRZSS
[11] = CYPES: yellow nutsedge (Cyperus esculentus), read-out: Visual Growth Reduction (%) 14 Days After Application, CYPES
[12] = DIGSA: crabgrass (Digitaria sanguinalis), read-out: Visual Growth Reduction (%) 14 Days After Application, DIGSA
[13] = ECHCG: barnyardgrass (Echinochloa crus-galli), read-out: Visual Growth Reduction (%) 14 Days After Application, ECHCG
[14] = ORYSA: rice (Oryza sativa), read-out: Visual Growth Reduction (%) 14 Days After Application, ORYSA
[15] = SETFA: giant foxtail (Setaria faberi), read-out: Visual Growth Reduction (%) 14 Days After Application, SETFA
[16] = SORVU: grain sorghum (Sorghum vulgare), read-out: Visual Growth Reduction (%) 14 Days After Application, SORVU
[17] = ZEAMX: maize, corn (Zea mays), read-out: Visual Growth Reduction (%) 14 Days After Application, ZEAMX

COC(=O)c1nc(-c2ccc(I)c(F)c2)c(Cl)c(N)c1Cl [Compound 13, Methyl 4-amino-3,5-dichloro-6-(3-fluoro-4-iodophenyl)picolinate]
pest or weed control at 70 g/ha [1, 3]: 85 to 94%
pest or weed control at 140 g/ha [1, 3]: 95 to 100%
pest or weed control at 70 g/ha [1, 4]: 85 to 94%
pest or weed control at 140 g/ha [1, 4]: 95 to 100%
pest or weed control at 70 g/ha [1, 5]: 85 to 94%
pest or weed control at 140 g/ha [1, 5]: 85 to 94%
pest or weed control at 70 g/ha [1, 6]: 95 to 100%
pest or weed control at 140 g/ha [1, 6]: 95 to 100%
pest or weed control at 70 g/ha [1, 7]: 0 to 29%
pest or weed control at 140 g/ha [1, 7]: 30 to 44%
pest or weed control at 70 g/ha [1, 8]: 95 to 100%
pest or weed control at 140 g/ha [1, 8]: 95 to 100%
pest or weed control at 70 g/ha [1, 9]: 0 to 29%
pest or weed control at 140 g/ha [1, 9]: 0 to 29%
pest or weed control at 70 g/ha [2, 10]: 45 to 59%
pest or weed control at 140 g/ha [2, 10]: 60 to 74%
pest or weed control at 70 g/ha [2, 11]: 75 to 84%
pest or weed control at 140 g/ha [2, 11]: 75 to 84%
pest or weed control at 70 g/ha [2, 12]: 60 to 74%
pest or weed control at 140 g/ha [2, 12]: 75 to 84%
pest or weed control at 70 g/ha [2, 13]: 60 to 74%
pest or weed control at 140 g/ha [2, 13]: 75 to 84%
pest or weed control at 70 g/ha [2, 14]: 0 to 29%
pest or weed control at 140 g/ha [2, 14]: 0 to 29%
pest or weed control at 70 g/ha [2, 15]: 45 to 59%
pest or weed control at 140 g/ha [2, 15]: 75 to 84%
pest or weed control at 70 g/ha [2, 16]: 85 to 94%
pest or weed control at 140 g/ha [2, 16]: 85 to 94%
pest or weed control at 70 g/ha [2, 17]: 60 to 74%
pest or weed control at 140 g/ha [2, 17]: 60 to 74%

— patent US9113629B2, “4-amino-6-(4-substituted-phenyl)-picolinates and 6-amino-2-(4-substituted-phenyl)-pyrimidine-4-carboxylates and their use as herbicides” (DOW AGROSCIENCES LLC, priority 2013, dated 2015)
